We go through one compound from ChEMBL document CHEMBL5705903, “A DNA Hypomethylation Signature Predicts Antitumor Activity of LSD1 Inhibitors in SCLC” (Cancer Cell, 2015).

For orientation: AUC(0-inf) means total exposure, with the tail of the curve extrapolated. As a reminder, the AUC(0-t) is exposure summed from dosing to a finite time, without extrapolation to infinity. Low readings indicate low exposure, high ones high exposure.

Data set [1] is described as follows: Effect on cleaved PARP level in human NCI-H1694 cells assessed as fold change at 1000 nM measured after 10 days by Western blot analysis (reference value: 1.00). The format is functional. The settings on record: time 10 day. A general note: In western blotting, separated proteins are transferred to a membrane and probed.
The target in data set [2] is Lysine-specific histone demethylase 1A (Homo sapiens, UniProt O60341). As to conditions: NCI-H526, dose 1-10000 nM, time 1-7 day.
Description: Inhibition of LSD1 in human NCI-H526 cells assessed as change in IGFBP2 gene expression at 1 to 10000 nM by qRT-PCR analysis
The next data set relates to NCI-H526. The experiment in a line: Effect on global H3K4me2 level in human NCI-H526 cells at 10 to 1000 nM measured after 24 hrs by Western blot analysis. The settings on record: dose 10-1000 nM. The class given is functional, cell-based.
The nature of data set [3]: Effect on cleaved PARP level in human NCI-H69 cells assessed as fold change at 1000 nM measured after 10 days by Western blot analysis (reference value: 1.00). The class given is functional. As to conditions: time 10 day.
The nature of data set [4]: Effect on cleaved PARP level in human NCI-H889 cells assessed as fold change at 100 nM measured after 14 days by Western blot analysis (reference value: 1.00). The format is functional. The settings on record: time 14 day.
Data set [5] in a line: Toxicity in dog assessed as suppression of erythroid maturation in bone marrow measured for 28 days. More on the design: species or system Canis lupus familiaris. The settings on record: in vivo, 672 h, time 28 day.
A short description of data set [6]: Effect on cleaved PARP level in human NCI-H1417 cells assessed as fold change at 10 nM measured after 14 days by Western blot analysis (reference value: 1.00). The class given is functional. The settings on record: time 14 day.
A further data set deals with NCI-H146. The data set is described as follows: Effect on NCAM gene expression in human NCI-H146 cells at 1 uM measured after 4 days by qRT-PCR analysis. The class given is functional, cell-based. As to conditions: time 4.0 day. In general terms: In qPCR the cycle at which signal appears reflects the starting amount.
The nature of data set [7]: AUC (0 to infinity) in mouse blood at 5 mg/kg, po by HPLC/MS/MS analysis. The format is ADME, organism-based.
Data set [8] in a line: Effect on cleaved PARP level in human NCI-H510 cells assessed as fold change at 1000 nM measured after 14 days by Western blot analysis (reference value: 1.00). As to conditions: time 14 day. The class given is functional, NCI-H510A.
A short description of data set [9]: Effect on cleaved PARP level in human NCI-H524 cells assessed as relative expression at 10 nM measured after 7 days by Western blot analysis (reference value: 0.63). The format is functional. As to conditions: time 7 day.
Data set [10] is described as follows: Effect on cleaved PARP level in human NCI-H2171 cells assessed as fold change at 10 nM measured after 10 days by Western blot analysis (reference value: 1.00). The settings on record: time 10 day. The class given is functional.
Data set [11] is described as follows: AUC (0 to last) in mouse tumor at 5 mg/kg, po by HPLC/MS/MS analysis. The class given is ADME, organism-based, Neoplasm.
Data set [12] is described as follows: Effect on cleaved PARP level in human NCI-H889 cells assessed as fold change at 100 nM measured after 7 days by Western blot analysis (reference value: 1.00). The class given is functional. As to conditions: time 7 day.
In data set [13] the test system is SHP77. The data set is described as follows: Effect on SYP gene expression in human SHP77 cells at 1 uM measured after 4 days by qRT-PCR analysis. As to conditions: time 4.0 day. The class given is functional, cell-based.
Data set [14] has as its system NCI-H1417. The experiment in a line: In vivo inhibition of LSD1 in human NCI-H1417 cells xenografted in nude mouse assessed as change in ZEB1 gene expression measured after 24 hrs post single administration by qRT-PCR analysis. The format is functional, organism-based. The settings on record: dose 0.02-135 mg/kg. (In xenograft studies the graft and the host belong to different species.)

A short description of data set [15]: Effect on cleaved PARP level in human NCI-H526 cells assessed as fold change at 100 nM measured after 10 days by Western blot analysis (reference value: 1.00). The format is functional. As to conditions: time 10 day.
The nature of data set [16]: Effect on cleaved PARP level in human NCI-H69 cells assessed as relative expression at 10 nM measured after 10 days by Western blot analysis (reference value: 0.03). The format is functional. The settings on record: time 10 day.
Data set [17] is described as follows: Effect on cleaved PARP level in human COLO-668 cells assessed as relative expression at 1000 nM measured after 14 days by Western blot analysis (reference value: 3.50). The class given is functional. As to conditions: time 14 day.
Data set [18] can be described thus: Toxicity in rat assessed as suppression of erythroid maturation in bone marrow measured for 28 days. The settings on record: in vivo, 672 h, time 28 day.
Data set [19] deals with NCI-H1417. The experiment in a line: Cell growth inhibition of human NCI-H1417 cells measured for 4 days. The class given is functional, cell-based. As to conditions: time 4.0 day.
Data set [20] has as its system SHP77. The data set is described as follows: Effect on NCAM gene expression in human SHP77 cells at 1 uM measured after 4 days by qRT-PCR analysis. The class given is functional, cell-based. As to conditions: time 4.0 day.
Data set [21] is described as follows: Effect on cleaved PARP level in human NCI-H889 cells assessed as fold change at 10 nM measured after 7 days by Western blot analysis (reference value: 1.00). The format is functional. The settings on record: time 7 day.

The source made the active and inactive calls. The calls are words filed in the database; no cut-off is given here.

`O=C(O)c1ccc(CN2CCC(CN[C@@H]3C[C@H]3c3ccccc3)CC2)cc1` [GSK2879552]: the “fold change (FC)” value stood at 0.71 in [1]; 2.5 in [3]; 2.51 in [4]; 0.82 in data set [6]; 2.61 in data set [8]; 1.33 in [10]. Besides, the “fold change (FC)” value in data set [12] is listed as 1.25; in data set [15], 1.16; in data set [21], 0.09. For the same compound, the inhibition entry in data set [2] is “Tde”; in the data set on NCI-H1417 [14] it was “Dose-Dependent Effect”. Further, the result in the data set on NCI-H526, with NCI-H146, with SHP77 [13] and in the data set on SHP77 [20] was inactive. Further, the Activity entry in data set [5] was “Toxic”; in [9], 0.62; in data set [16] it was 0.06; in data set [17], 1.02; in [18], “Toxic”. This compound also displayed a total exposure AUC(0-inf) in data set [7] of 903 ng·h/mL. The AUC(0-t) in data set [11] was 2320 ng·h/mL. In addition, the “growth inhibition (GI)” value in the data set on NCI-H1417 [19] was “inactive”.
